The text below walks through data of patent US11001563B2, “SSAO inhibitor” (SHANDONG DANHONG PHARMACEUTICAL CO., LTD., priority 2017, dated 2021).

T1 sequence (Q16853 whole entry): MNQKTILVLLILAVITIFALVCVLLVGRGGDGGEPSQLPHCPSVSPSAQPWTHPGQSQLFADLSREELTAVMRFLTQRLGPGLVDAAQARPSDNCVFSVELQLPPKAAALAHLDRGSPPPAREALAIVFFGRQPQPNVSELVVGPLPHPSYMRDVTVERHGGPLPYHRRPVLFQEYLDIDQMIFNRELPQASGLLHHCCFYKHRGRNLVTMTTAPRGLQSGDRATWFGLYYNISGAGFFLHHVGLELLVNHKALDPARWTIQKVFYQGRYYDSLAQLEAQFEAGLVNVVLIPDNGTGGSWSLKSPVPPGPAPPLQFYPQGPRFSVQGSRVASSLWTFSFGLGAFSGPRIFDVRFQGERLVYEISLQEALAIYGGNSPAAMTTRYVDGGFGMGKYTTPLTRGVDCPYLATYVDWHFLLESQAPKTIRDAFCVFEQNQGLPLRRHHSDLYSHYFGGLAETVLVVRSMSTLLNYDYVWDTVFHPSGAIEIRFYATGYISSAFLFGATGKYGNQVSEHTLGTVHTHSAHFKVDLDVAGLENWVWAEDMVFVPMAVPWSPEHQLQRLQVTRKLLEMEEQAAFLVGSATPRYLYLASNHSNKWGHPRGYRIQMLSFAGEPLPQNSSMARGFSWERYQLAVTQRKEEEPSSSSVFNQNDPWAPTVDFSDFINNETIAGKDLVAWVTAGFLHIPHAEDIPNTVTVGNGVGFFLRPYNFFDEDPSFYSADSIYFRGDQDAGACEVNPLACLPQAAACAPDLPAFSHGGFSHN

The target of one assay is T1, VAP-1/SSAO (Homo sapiens (Human), UniProt Q16853). Kind of assay: Human VAP-1 enzyme activity assay (Amplex Red Monoamine Oxidase kit). In kind it is biochemical. The conditions noted are these: 10 nM VAP-1 enzyme, 30 min preincubation, benzylamine substrate; read-out: Human Recombinant VAP-1/SSAO Enzyme Inhibitory Activity IC50. On the procedure:
Human VAP-1 enzyme activity assay:
The inhibition of the sample on VAP-enzyme activity was measured by using an Amplex® Red Monoamine Oxidase kit (Invitrogen #A12214). 100 nL of the gradiently-diluted to-be-tested compound (solvent DMSO) was added to a 384-well plate. 25 μL of 10 nM VAP-1 enzyme solution was added and incubated for 30 minutes at room temperature. A substrate mixture of VAP-1 enzyme (200 μM Amplex Red, 1 U/mL HRP, 1 mM Benzylamine) was added and incubated for 60 minutes at room temperature. After the incubation, the fluorescent signal was read with a microplate reader Envision (excitation light wavelength 530-560 nm, emission light wavelength 590 nm). The fluorescence signal value after the background signal was removed was analyzed by Prism software, and the IC50 of the sample against the VAP-1 enzyme was calculated.
On to `NC/C(=C\F)COc1ccc(-c2ncccn2)cc1` [WX021], for which the IC50 came out at 0.3 nM. Regarding `Cn1nc(C(C)(C)C)nc1-c1ccc(OC/C(=C/F)CN)cc1` [WX089], the IC50 came to 1.9 nM.

For `CC(C)(C)C(=O)Nc1noc(-c2ccc(OC/C(=C/F)CN)cc2)n1` [WX077], the IC50 turned out to be 1.6 nM. Regarding `NC/C(=C\F)COc1ccc(-c2nc(C3CC3)no2)cc1` [WX016], the IC50 amounted to 1 nM. For the compound `Cn1ncc(-c2ccc(OC/C(=C/F)CN)cc2)n1` [WX026], the IC50 worked out at 0.3 nM. With `CC(C)n1nc(-c2ccc(OC/C(=C/F)CN)cc2)nc1C(F)F` [WX124], the IC50 turned out to be 1.4 nM. Consider `NC/C(=C\F)COc1ccc(-c2nc(-c3ccccc3)no2)cc1` [WX017], for which the IC50 worked out at 0.8 nM. As for `NC/C(=C\F)COc1ccc(-c2nc(NC3CC3)no2)cc1` [WX082], the IC50 came out at 0.3 nM. For the compound `NC/C(=C\F)COc1ccc(-c2noc3ccccc23)cc1` [WX033], the IC50 is 0.3 nM. The same measure, in the same setting: the value for `Cc1n[nH]c(-c2ccc(OC/C(=C/F)CN)cc2)n1` [WX009] was 3.7 nM; that for `CC(C)(C)n1nnc(-c2ccc(OC/C(=C/F)CN)cc2)n1` [WX048] was 0.6 nM; that for `Cc1cn[nH]c1-c1ccc(OC/C(=C/F)CN)cc1` [WX041] was 0.6 nM. Consider `CC(C)n1nc(-c2ccc(OC/C(=C/F)CN)cc2)nc1N1CCOCC1` [WX123], for which the IC50 is 2.2 nM.

On to `CCn1nc(-c2ccc(OC/C(=C/F)CN)cc2)nc1C(F)F` [WX128], for which the IC50 was 1 nM. Regarding `NC/C(=C\F)COc1ccc(-c2nc(C3CC3)n(CCO)n2)cc1` [WX112], the IC50 amounted to 1.7 nM. With `NC/C(=C\F)COc1ccc(-c2nc(CC(F)(F)F)n[nH]2)cc1` [WX101], the IC50 is 0.4 nM. For the compound `NC/C(=C\F)COc1ccc(-c2nc(C(F)F)n[nH]2)cc1` [WX088], the IC50 stood at 0.4 nM.

Take `CCCc1n[nH]c(-c2ccc(OC/C(=C/F)CN)cc2)n1` [WX097]: the IC50 turned out to be 0.5 nM. Turning to `CCn1nc(-c2ccc(OC/C(=C/F)CN)cc2)nc1C1CC1` [WX092], the IC50 was 1.4 nM. As to `Cn1cnc(-c2ccc(OC/C(=C/F)CN)cc2)n1` [WX025], the IC50 stood at 0.9 nM. For the compound `NC/C(=C\F)COc1ccc(-c2nc(C3CC3)n[nH]2)cc1` [WX034], the IC50 stood at 0.8 nM. Consider `Cc1nc(-c2ccc(OC/C(=C/F)CN)cc2)sc1C` [WX111], for which the IC50 is 0.4 nM. As to `CCn1nc(-c2ccc(OC/C(=C/F)CN)cc2)nc1N1CCOCC1` [WX125], the IC50 stood at 1 nM. With `Cc1nc(-c2ccc(OC/C(=C/F)CN)cc2)sc1N1CCOCC1` [WX102], the IC50 came out at 0.4 nM. Regarding `NC/C(=C\F)COc1ccc(-c2nc(C3CC3)n(CC(F)(F)F)n2)cc1` [WX113], the IC50 amounted to 1.1 nM.

As for `NC/C(=C\F)COc1ccc(-c2nc(C3CC3)no2)c(Cl)c1` [WX056], the IC50 worked out at 1.7 nM. On to `NC/C(=C\F)COc1ccc(-c2nc(C3CCCC3)n[nH]2)cc1` [WX064], for which the IC50 is 0.8 nM. For the compound `Cn1nc(-c2ccc(OC/C(=C/F)CN)cc2)nc1C1CC1` [WX075], the IC50 was 0.7 nM. `NC/C(=C\F)COc1ccc(-c2nc(C3CC3)n[nH]2)c(F)c1` [WX094]: the IC50 amounted to 0.3 nM. Same read-out and setting: for `Cn1nc(-c2ccc(OC/C(=C/F)CN)cc2)nc1C1(F)CC1` [WX127] the value was 0.8 nM. For `NC/C(=C\F)COc1ccc(-c2nc(C3CC3(F)F)n[nH]2)cc1` (stereo not shown) [WX096], the IC50 was determined as 0.8 nM. Regarding `NC/C(=C\F)COc1ccc(-c2nc(C3CCC3)n[nH]2)cc1` [WX085], the IC50 worked out at 0.2 nM. For `Cn1nc(-c2ccc(OC/C(=C/F)CN)cc2)nc1C(C)(C)C` [WX090], the IC50 was 1.1 nM. The same measure, in the same setting: the value for `NC/C(=C\F)COc1ccc(-c2nc(N3CCOCC3)n[nH]2)cc1` [WX073] was 0.9 nM; that for `CC(C)(C)c1noc(-c2ccc(OC/C(=C/F)CN)cc2)n1` [WX019] was 2 nM. Turning to `Cc1nc(-c2ccc(OC/C(=C/F)CN)cc2)no1` [WX028], the IC50 is 0.7 nM. As to `CC(C)(C)c1nc(-c2ccc(OC/C(=C/F)CN)cc2)no1` [WX045], the IC50 was found to be 1.1 nM. Regarding `NC/C(=C\F)COc1ccc(-c2nnn(C3CC3)n2)cc1` [WX049], the IC50 was determined as 0.3 nM. As to `NC/C(=C\F)COc1ccc(N2C(=O)C(=O)c3ccccc32)cc1` [WX052], the IC50 was found to be 1.3 nM. Same read-out and setting: the value for `Cc1coc(-c2ccc(OC/C(=C/F)CN)cc2)n1` [WX039] was 0.5 nM. On the same count and under the same terms, for `NC/C(=C\F)COc1ccc(-c2nc(C(F)(F)F)n[nH]2)cc1` [WX036] the value was 4.6 nM. In the case of `NC/C(=C\F)COc1ccc(-c2nc(N)no2)cc1` [WX074], the IC50 is 1 nM. Same read-out and setting: for `NC/C(=C\F)COc1cc(F)c(-c2nc(N3CCOCC3)n[nH]2)c(F)c1` [WX099] the value was 3.4 nM; for `NC/C(=C\F)COc1ccc(-c2nccc(N3CCOCC3)n2)cc1` [WX070], 1.1 nM. Consider `NC/C(=C\F)COc1ccc(-c2nc(C(N)=O)n[nH]2)cc1` [WX072], for which the IC50 was determined as 0.7 nM. Same read-out and setting: for `NC/C(=C\F)COc1ccc(-c2nc3ccccc3o2)cc1` [WX023] the value was 0.4 nM; for `NC/C(=C\F)COc1ccc(-c2nc(N3CCOCC3)n[nH]2)c(F)c1` [WX100], 1.1 nM. Same read-out and setting: for `NC/C(=C\F)COc1ccc(-c2nc3ccc(Cl)cc3[nH]2)cc1` [WX054] the value was 0.4 nM; for `NC/C(=C\F)COc1ccc(-c2noc(C3CC3)n2)cc1` [WX044], 0.5 nM; for `NC/C(=C\F)COc1ccc(-c2nnc(NC3CC3)o2)cc1` [WX079], 0.2 nM. Regarding `COc1ccc(Cn2nc(-c3ccc(OC/C(=C/F)CN)cc3)nc2NC2CC2)cc1` [WX080], the IC50 came out at 3.8 nM. `CCn1nc(-c2ccc(OC/C(=C/F)CN)cc2)nc1C1(F)CC1` [WX129]: the IC50 came out at 1 nM. Same read-out and setting: for `NC/C(=C\F)COc1ccc(-c2nc(NC3CC3)n[nH]2)cc1` [WX081] the value was 0.5 nM; for `Cn1nc(C2CC2)nc1-c1ccc(OC/C(=C/F)CN)cc1` [WX076], 2.1 nM. `CC(C)(C)c1n[nH]c(-c2ccc(OC/C(=C/F)CN)cc2)n1` [WX035]: the IC50 stood at 2.3 nM. As to `NC/C(=C\F)COc1ccc(-c2nc(CC3CCCC3)n[nH]2)cc1` [WX103], the IC50 was determined as 0.2 nM. The same measure, in the same setting: for `Cc1csc(-c2ccc(OC/C(=C/F)CN)cc2)n1` [WX022] the value was 0.3 nM; for `NC/C(=C\F)COc1ccc(-c2nc(C3CCOCC3)n[nH]2)cc1` [WX093], 0.3 nM; for `CS(=O)(=O)n1nc(C2CC2)nc1-c1ccc(OC/C(=C/F)CN)cc1` [WX062], 1.2 nM.

Turning to `CC(C)(C)NC(=O)c1noc(-c2ccc(OC/C(=C/F)CN)cc2)n1` [WX042], the IC50 was 1.6 nM. With `CC(C)n1nc(-c2ccc(OCC(=CF)CN)cc2)nc1C1(F)CC1` [WX130], the IC50 is 1.4 nM.

Consider `Cc1nnc(-c2ccc(OC/C(=C/F)CN)cc2)o1` [WX004], for which the IC50 was 2.5 nM. On the same count and under the same terms, for `Cn1nc(-c2ccc(OC/C(=C/F)CN)cc2)nc1CC(F)(F)F` [WX105] the value was 0.5 nM; for `NC/C(=C\F)COc1ccc(-c2n[nH]c(C(CO)CCl)n2)cc1` (stereo not shown) [WX083], 0.4 nM. Same read-out and setting: the value for `Cn1nc(-c2ccc(OC/C(=C/F)CN)cc2)nc1N1CCOCC1` [WX122] was 1 nM; that for `Cc1cnoc1-c1ccc(OC/C(=C/F)CN)cc1` [WX040] was 0.5 nM. In the case of `CC1(C)CN=C(c2ccc(OC/C(=C/F)CN)cc2)N1` [WX106], the IC50 is 1.1 nM. With `NC/C(=C\F)COc1ccc(-c2nc(N3CCOCC3)cs2)cc1` [WX086], the IC50 turned out to be 9.9 nM.

On to `Cc1ncc(-c2ccc(OC/C(=C/F)CN)cc2)s1` [WX024], for which the IC50 came out at 0.3 nM.

The target of the next assay is T1, VAP-1/SSAO. Kind of assay: VAP-1 cell activity assay (HUVEC or CHO cells transfected with VAP-1/pCDNA (3.1) plasmid, Amplex Red). As to conditions: HUVEC or CHO cells transfected with VAP-1 plasmid; read-out: VAP-1/SSAO Cellular Inhibitory Activity IC50. It counts as cell-based. As to the method:
The inhibition of the sample on VAP-1 cell activity was measured by using an Amplex® Red Monoamine Oxidase kit (Invitrogen #A12214).
The cultured HUVEC or CHO cells were plated into a 6-well plate at a density of 0.8 M/well, placed in a 37° C., 5% CO2 incubator for incubation for 24 hours, and then the cells was transferred with a Lipo2000 reagent and a VAP-1/pCDNA (3.1) plasmid, and liquid was changed for the cells after 5 hours (Lipo2000 was toxic to the cells); after 24 hours, the cells were digested and plated into 384-well plates with a density of 25 μl, 10000 cells/well, and liquid was replaced with medium without FBS for the cells after 6-7 hours, and the cell plates were incubated overnight at 37° C. in a 5% CO2 incubator.
1) Dilution of the compound: serial dilution in 4× gradient was carried out with 100% DMSO, 10 points were diluted, the starting concentration of the to-be-tested compound was 0.5 mM (final concentration was 1 μM); 100 nl of compound solution was transferred to a 384-well cell assay plate with ECHO. Negative control wells: 100 nl of DMSO; background control wells: 100 nl DMSO+25 μL medium.
2) The reaction was carried out in the dark at room temperature for 30 min.
3) Preparation of Amplex Red reagent+HRP+benzylamine substrate working solution: Amplex Red reagent+HRP+benzylamine substrate working solution (200 μM Amplex Red reagent+1 U/mL HRP+1 mM benzylamine): 45 μl of 20 mM Amplex Red reagent mother solution, 22.5 μl of 200 U/ml horseradish peroxidase (HRP) mother solution and 45 ul of 100 mM benzylamine were tanken and added to 4.3875 ml of 1× reaction buffer.
4) After 30 min, 25 μl of the substrate working solution was added to a 384-well plate, and a final concentration was 100 μM Amplex Red reagent+0.5 U/mL HRP+0.5 mM benzylamine, respectively.
5) The reaction was carried out in the dark at room temperature for 60 minutes, and the fluorescence value was measured by Envision: the excitation wave was 535 nm, and the emission wave was 590 nm.
6) Inhibition rate calculation formula: % inhibition rate=(1−(test hole minus background−positive control well minus background)/(negative control well minus background-positive control well minus background))*100
7) The data were analyzed with Prism. The IC50 of the sample against VAP-1 cells was calculated.
Consider `NC/C(=C\F)COc1ccc(-c2nc(C3CC3)no2)cc1` [WX016], for which the IC50 stood at 0.2 nM. As for `NC/C(=C\F)COc1ccc(-c2nc(C3CC3)n(CCO)n2)cc1` [WX112], the IC50 is 0.9 nM. On to `NC/C(=C\F)COc1ccc(-c2nc(CC(F)(F)F)n[nH]2)cc1` [WX101], for which the IC50 turned out to be 0.4 nM. Same read-out and setting: for `NC/C(=C\F)COc1ccc(-c2nc(C(F)F)n[nH]2)cc1` [WX088] the value was 1.6 nM; for `CCCc1n[nH]c(-c2ccc(OC/C(=C/F)CN)cc2)n1` [WX097], 0.3 nM; for `NC/C(=C\F)COc1ccc(-c2nc(C3CC3)n[nH]2)cc1` [WX034], 0.4 nM. As for `NC/C(=C\F)COc1ccc(-c2nc(C3CC3)n(CC(F)(F)F)n2)cc1` [WX113], the IC50 was determined as 0.9 nM.
